# Article PMC7756341, “Liposomal FRET Assay Identifies Potent Drug‐Like Inhibitors of the Ceramide Transport Protein (CERT)” (Chemistry (Weinheim an Der Bergstrasse, Germany), 2020)
# Values joined by “and” are separate entries in the source; they are usually repeats but may differ in a detail not shown here. Equal values may be shown once.
# Test system: HeLa cells
# Experiment: Sphingolipid content of treated HeLa cells by quantitative mass spectrometry
# Type: cell-based
# Settings: for Cer16 / Cer18 / Cer20 / Cer22 / Cer24 / Cer24:1 / Cer total / S1P / SM16 / SM18 / SM20 / SM22 / SM24 / SM24:1 / SM total / Sph / ratio total SM/Cer: HeLa, 42h, single replicates; for Cer16 / Cer18 / Cer20 / Cer22 / Cer24 / Cer24:1 / Cer total / S1P / SM16 / SM18 / SM20 / SM22 / SM24 / SM24:1 / SM total / Sph: 500.000 cells per sample
# Procedure: 5.2 Cellular experiment for lipidomic analysis
# Hela cells were cultured in six well plates (177000 cells per well) under standard growth conditions (DMEM with 4mM L-glutamine, 10% FBS, 1% Penicillin-Streptomycin; CO2 incubator with […]
# 37°C, 5% CO2). […]
# After incubation, […]
# the adherent cells were washed twice with ice-cold PBS and harvested by treatment with trypsin.
# Cells were counted using a Countess II cell counter ( Invitrogen) and adjusted to 500.000 cells per sample. Each sample was then treated as described below.
# 6. Details for experimental lipidomics
# Cells were subjected to lipid extraction using 1.5 mL methanol/chloroform (2:1, v:v) as described. The extraction solvent contained C17-ceramide (Cer17) and C16 -d31-sphingomyelin (d31-SM16) (both Avanti Polar Lipids, Alabaster, USA) as internal standards. Chromatographic separations were achieved on a 1260 Infinity HPLC (Agilent Technologies, Waldbronn, Germany) equipped with a Poroshell 120 EC-C8 column (3.0 × 150 mm, 2.7 µm; Agilent Technologies). A mobile phase system consisting of water (solvent A) and acetonitrile/methanol (1:1, v:v; solvent B), both acidified with 0.1% formic acid, was used for gradient elution at an initial composition of 40:60 (A:B, v:v) and a flow rate of 0.5 mL/min. MS/MS analyses were carried out using a 6490 triple-quadrupole mass spectrometer (Agilent Technologies) operating in the positive electrospray ionization mode (ESI+). The following ion source parameters were set: sheath gas temperature, 375 °C; sheath gas flow, 12 L/min of nitrogen; nebulizer pressure, 30 psi; drying gas temperature, 200 °C; drying gas flow, 15 L/min of nitrogen; capillary voltage, 4000 V; nozzle voltage, 1500 V; iFunnel high pressure RF voltage, 150 V and iFunnel low pressure RF voltage, 60 V. The following mass transitions were recorded (collision energies of 25 eV for all transitions): ceramides: m/z […]
# with MassHunter Software (Agilent Technologies). Significance of differences between two samples was calculated by student’s t -test. Asterisks indicate significant differences between treated and untreated samples: * p<0.05; ** p<0.01; *** p<0.005.
# Table S1. Sphingolipid content of treated cells.
# (1 picture or pasted object on this page, not shown here)
compound,measurement,setting,value
"O=C(NC1CCN(CCCCC2(C(=O)NCC(F)(F)F)c3ccccc3-c3ccccc32)CC1)c1ccccc1-c1ccc(C(F)(F)F)cc1 [8E8, lomitapide]",effect on sphingomyelin at 5 μM,"HeLa cells, 5 μM",drastic reduction
same,effect on total sphingomyelin,"HeLa cells, 48 hours, serum-reduced medium",dose‐dependent reduction
same,potency on relation of total sphingomyelin to ceramide compared to HPA-12,"HeLa cells, all concentrations",increased potency
same,Cer16,1 µM,"66,02 pmol/sample and 57,09 pmol/sample and 60,15 pmol/sample"
same,Cer18,1 µM,"7,66 pmol/sample and 6,67 pmol/sample and 6,95 pmol/sample"
same,Cer20,1 µM,"2,25 pmol/sample and 1,77 pmol/sample and 2,84 pmol/sample"
same,Cer22,1 µM,"14,47 pmol/sample and 13,05 pmol/sample and 13,35 pmol/sample"
same,Cer24,1 µM,"34,96 pmol/sample and 30,93 pmol/sample and 30,90 pmol/sample"
same,Cer24:1,1 µM,"73,09 pmol/sample and 65,48 pmol/sample and 68,22 pmol/sample"
same,Cer total,1 µM,"198,45 pmol/sample and 178,06 pmol/sample and 179,34 pmol/sample"
same,S1P,1 µM,"1,12 pmol/sample and 1,00 pmol/sample and 0,85 pmol/sample"
same,SM16,1 µM,"1825,61 pmol/sample and 1823,48 pmol/sample and 1739,12 pmol/sample"
same,SM18,1 µM,"59,37 pmol/sample and 58,79 pmol/sample and 52,57 pmol/sample"
same,SM20,1 µM,"20,60 pmol/sample and 20,35 pmol/sample and 17,81 pmol/sample"
same,SM22,1 µM,"115,26 pmol/sample and 124,65 pmol/sample and 105,99 pmol/sample"
same,SM24,1 µM,"173,05 pmol/sample and 183,46 pmol/sample and 158,17 pmol/sample"
same,SM24:1,1 µM,"817,85 pmol/sample and 842,40 pmol/sample and 760,17 pmol/sample"
same,SM total,1 µM,"3011,74 pmol/sample and 3053,13 pmol/sample and 2833,83 pmol/sample"
same,Sph,1 µM,"3,57 pmol/sample and 3,81 pmol/sample and 3,42 pmol/sample"
same,ratio total SM/Cer,1 µM,"16,8 and 15,4 and 15,9"
same,Cer16,2.5 µM,"74,51 pmol/sample and 82,98 pmol/sample and 79,41 pmol/sample"
same,Cer18,2.5 µM,"8,90 pmol/sample and 10,02 pmol/sample and 9,50 pmol/sample"
same,Cer20,2.5 µM,"2,09 pmol/sample and 2,26 pmol/sample and 2,11 pmol/sample"
same,Cer22,2.5 µM,"14,83 pmol/sample and 17,07 pmol/sample and 15,69 pmol/sample"
same,Cer24,2.5 µM,"32,62 pmol/sample and 36,00 pmol/sample and 36,33 pmol/sample"
same,Cer24:1,2.5 µM,"74,15 pmol/sample and 79,98 pmol/sample and 77,75 pmol/sample"
same,Cer total,2.5 µM,"207,10 pmol/sample and 228,30 pmol/sample and 220,79 pmol/sample"
same,S1P,2.5 µM,"0,75 pmol/sample and 1,06 pmol/sample and 1,09 pmol/sample"
same,SM16,2.5 µM,"1630,84 pmol/sample and 1823,72 pmol/sample and 1666,50 pmol/sample"
same,SM18,2.5 µM,"53,11 pmol/sample and 57,73 pmol/sample and 55,13 pmol/sample"
same,SM20,2.5 µM,"19,44 pmol/sample and 21,11 pmol/sample and 18,70 pmol/sample"
same,SM22,2.5 µM,"103,91 pmol/sample and 113,22 pmol/sample and 105,74 pmol/sample"
same,SM24,2.5 µM,"157,53 pmol/sample and 168,83 pmol/sample and 156,81 pmol/sample"
same,SM24:1,2.5 µM,"722,25 pmol/sample and 731,59 pmol/sample and 797,90 pmol/sample"
same,SM total,2.5 µM,"2725,14 pmol/sample and 2696,43 pmol/sample and 2982,51 pmol/sample"
same,Sph,2.5 µM,"3,63 pmol/sample and 3,39 pmol/sample and 3,50 pmol/sample"
same,ratio total SM/Cer,2.5 µM,"12,3 and 13,0 and 13,1"
same,Cer16,5 µM,"89,79 pmol/sample and 129,48 pmol/sample and 69,03 pmol/sample"
same,Cer18,5 µM,"7,26 pmol/sample and 11,79 pmol/sample and 5,12 pmol/sample"
same,Cer20,5 µM,"1,69 pmol/sample and 2,84 pmol/sample and 1,31 pmol/sample"
same,Cer22,5 µM,"12,62 pmol/sample and 18,55 pmol/sample and 9,43 pmol/sample"
same,Cer24,5 µM,"22,56 pmol/sample and 31,76 pmol/sample and 18,74 pmol/sample"
same,Cer24:1,5 µM,"66,19 pmol/sample and 87,40 pmol/sample and 47,19 pmol/sample"
same,Cer total,5 µM,"200,11 pmol/sample and 281,82 pmol/sample and 150,81 pmol/sample"
same,S1P,5 µM,"0,37 pmol/sample and 0,42 pmol/sample and 0,53 pmol/sample"
same,SM16,5 µM,"450,01 pmol/sample and 691,68 pmol/sample and 345,52 pmol/sample"
same,SM18,5 µM,"25,94 pmol/sample and 35,37 pmol/sample and 18,65 pmol/sample"
same,SM20,5 µM,"8,48 pmol/sample and 11,39 pmol/sample and 5,85 pmol/sample"
same,SM22,5 µM,"36,80 pmol/sample and 52,48 pmol/sample and 26,91 pmol/sample"
same,SM24,5 µM,"50,34 pmol/sample and 70,92 pmol/sample and 33,38 pmol/sample"
same,SM24:1,5 µM,"200,60 pmol/sample and 298,06 pmol/sample and 137,99 pmol/sample"
same,SM total,5 µM,"772,16 pmol/sample and 1159,90 pmol/sample and 568,29 pmol/sample"
same,Sph,5 µM,"3,46 pmol/sample and 3,80 pmol/sample and 3,91 pmol/sample"
same,ratio total SM/Cer,5 µM,"3,9 and 4,1 and 3,8"
